In patent US7851474B2, “Dipiperazinyl ketones and related analogues” (Neurogen Corporation, priority 2005, dated 2010) one finds inhibition data, which are given here for 31 molecules.

By inhibition is commonly meant the change of the read-out against control, counted positive when it falls.

T1 sequence (Q9Y5N1 with tags, fused parts or gaps E19D): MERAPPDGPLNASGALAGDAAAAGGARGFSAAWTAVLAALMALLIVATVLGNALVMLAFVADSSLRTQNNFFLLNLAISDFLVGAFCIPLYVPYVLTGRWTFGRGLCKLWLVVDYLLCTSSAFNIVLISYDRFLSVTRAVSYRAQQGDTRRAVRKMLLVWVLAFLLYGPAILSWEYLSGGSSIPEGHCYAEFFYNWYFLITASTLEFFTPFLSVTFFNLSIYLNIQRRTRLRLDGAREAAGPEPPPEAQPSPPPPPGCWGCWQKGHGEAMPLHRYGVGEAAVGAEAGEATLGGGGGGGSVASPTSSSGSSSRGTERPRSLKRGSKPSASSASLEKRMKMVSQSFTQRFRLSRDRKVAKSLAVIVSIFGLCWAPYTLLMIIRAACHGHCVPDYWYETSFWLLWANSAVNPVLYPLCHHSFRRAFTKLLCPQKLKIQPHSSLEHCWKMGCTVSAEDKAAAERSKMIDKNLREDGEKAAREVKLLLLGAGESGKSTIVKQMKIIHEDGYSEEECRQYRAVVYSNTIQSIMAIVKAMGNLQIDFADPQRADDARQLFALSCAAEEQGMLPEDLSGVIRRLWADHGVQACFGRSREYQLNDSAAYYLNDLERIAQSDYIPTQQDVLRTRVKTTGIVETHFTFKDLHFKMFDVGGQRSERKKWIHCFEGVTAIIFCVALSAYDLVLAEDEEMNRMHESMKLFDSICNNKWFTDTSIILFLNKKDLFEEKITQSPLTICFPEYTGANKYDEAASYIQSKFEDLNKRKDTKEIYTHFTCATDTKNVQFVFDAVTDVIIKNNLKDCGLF

One assay concerns the target T1, chimeric human H3 receptor (Homo sapiens, UniProt Q9Y5N1, E19D).
T1 construct: made in house; host or cells: Sf9 insect cells (baculovirus infection); P2 membrane preparation
The assay can be described thus: Chimeric human H3 receptor screening GTP binding assay (inhibition of histamine-stimulated GTP-gamma35S binding, Example 8). The format is biochemical. To be noted: 1 h; "+" in Ki of Table II; assay of Example 8; read-out: percent inhibition of agonist-induced GTP-gammaS binding to H3. How it is done: This Example illustrates a representative screening assay for evaluating inhibition of histamine-stimulated GTP-gamma^35S binding. Such GTP binding activity can be used to identify H3 antagonists and inverse agonists. A compound analyzed in this assay is referred to herein as a “test compound,” and the initial identification of antagonists and inverse agonists is performed using a test compound concentration of 4 μM.
Four independent baculoviral stocks (one directing the expression of the chimeric human H3 receptor and three directing the expression of each of the three subunits of a heterotrimeric G-protein) are used to infect a culture of Sf9 cells as described above. P2 membranes are prepared as described above, and are resuspended by Dounce homogenization (tight pestle) in GTP binding assay buffer (50 mM Tris pH 7.4, 120 mM NaCl, 5 mM MgCl2, 2 mM EGTA, 1 mg/ml BSA, 0.2 mg/ml bacitracin, 0.02 mg/ml aprotinin, 0.01 mg/ml saponin, 10 μM GDP) and added to assay tubes at a concentration of 35 μg protein/reaction tube. Non-radiolabeled test compounds are added to separate reactions at a concentration of 4 μM along with 1 μM histamine (agonist). Reactions are initiated by the addition of 125 pM GTP-gamma^35S with a final assay volume of 0.20 ml.
After a 60-min incubation at room temperature, reactions are terminated by vacuum filtration over GF/C filters (pre-soaked in 50 mM Tris pH 7.4, 120 mM NaCl plus 0.1% BSA) followed by washing with ice-cold buffer (50 mM Tris pH 7.4, 120 mM NaCl). The amount of receptor-bound (and thereby membrane-bound) GTP-gamma^35S is determined by measuring the bound radioactivity, preferably by liquid scintillation spectrometry of the washed filters. Non-specific binding is determined using 10 uM GTP-gammaS and typically represents less than 5 percent of total binding. After subtraction of non-specific binding, data is expressed as percent inhibition of 1 μM histamine signal.
Neutral antagonists are those test compounds that reduce the histamine-stimulated GTP binding activity towards, but not below, baseline levels. In contrast, in the absence of added histamine, inverse agonists reduce the GTP binding activity of the receptor-containing membranes below baseline. Any test compound that elevates GTP binding activity above baseline in the absence of added histamine in this assay is defined as having agonist activity.
On the technique in general: GTPγS is a poorly hydrolysed GTP analogue; its binding reports G protein activation.
Turning to `COc1ccc(/C=C/C(=O)N2CCN(CC(=O)N3CCN(C4CCC4)CC3)CC2)cc1OC` [Compound 528, 1-cyclobutyl-4-({4-[(2E)-3-(3,4-dimethoxyphenyl)prop-2-enoyl]piperazin-1-yl}acetyl)piperazine], the inhibition at 4 µM is above 90%.
On to `O=C(Cc1ccccc1OCc1ccccc1)N1CCN(CC(=O)N2CCN(C3CCC3)CC2)CC1` [Compound 476, 1-{[2-(benzyloxy)phenyl]acetyl}-4-[2-(4-cyclobutylpiperazin-1-yl)-2-oxoethyl]piperazine], for which the inhibition at 4 µM is above 90%.
With `Cc1cc(C(=O)N2CCN(CC(=O)N3CCN(C4CCC4)CC3)CC2)c(C)n1C` [Compound 497, 1-cyclobutyl-4-({4-[(1,2,5-trimethyl-1H-pyrrol-3-yl)carbonyl]piperazin-1-yl}acetyl)piperazine], the inhibition at 4 µM is above 90%.
Take `COc1cccc(OCC(=O)N2CCN(CC(=O)N3CCN(C4CCC4)CC3)CC2)c1` [Compound 551, 1-cyclobutyl-4-({4-[(3-methoxyphenoxy)acetyl]piperazin-1-yl}acetyl)piperazine]: the inhibition at 4 µM was above 90%.
In the case of `COc1cc(CC(=O)N2CCN(CC(=O)N3CCN(C4CCC4)CC3)CC2)cc(OC)c1OC` [Compound 544, 1-cyclobutyl-4-({4-[(3,4,5-trimethoxyphenyl)acetyl]piperazin-1-yl}acetyl)piperazine], the inhibition at 4 µM was above 90%.
`O=C(CN1CCN(C(=O)c2cc(C(F)(F)F)ccc2Cl)CC1)N1CCN(C2CCC2)CC1` [Compound 452, 1-[2-chloro-5-(trifluoromethyl)benzoyl]-4-[2-(4-cyclobutylpiperazin-1-yl)-2-oxoethyl]piperazine]: the inhibition at 4 µM is above 90%.
For the molecule `O=C(/C=C/c1cccc2ccccc12)N1CCN(CC(=O)N2CCN(C3CCC3)CC2)CC1` [Compound 514, 1-cyclobutyl-4-({4-[(2E)-3-(1-naphthyl)prop-2-enoyl]piperazin-1-yl}acetyl)piperazine], the inhibition at 4 µM was above 90%.

Staying with this assay, now noted: 1 h; Table II "Ki", symbol "+": assay described in Example 8; read-out: percent inhibition of agonist-induced GTP-gammaS binding to H3.
For `O=C(CN1CCN(C(=O)c2cccnc2)CC1)N1CCN(C2CCC2)CC1` [Compound 800, 1-cyclobutyl-4-{[4-(pyridin-3-ylcarbonyl)piperazin-1-yl]acetyl}piperazine], the inhibition at 4 µM is above 90%.
Same read-out and setting: the same measure for `CC(C)Oc1ccc(C(=O)N2CCN(CC(=O)N3CCN(C4CCC4)CC3)CC2)cc1` [Compound 776, 1-cyclobutyl-4-{[4-(4-isopropoxybenzoyl)piperazin-1-yl]acetyl}piperazine]: above 90%; for `CCCc1ccc(C(=O)N2CCN(CC(=O)N3CCN(C4CCC4)CC3)CC2)cc1` [Compound 790, 1-cyclobutyl-4-{[4-(4-propylbenzoyl)piperazin-1-yl]acetyl}piperazine]: above 90%.

Staying with this assay, now noted: 1 h; Table II, "+" in the column headed Ki; assay of Example 8; read-out: percent inhibition of agonist-induced GTP-gammaS binding to H3.
In the case of `Cc1cccc(C)c1C(=O)N1CCN(CC(=O)N2CCN(C3CCC3)CC2)CC1` [Compound 696, 1-cyclobutyl-4-{[4-(2,6-dimethylbenzoyl)piperazin-1-yl]acetyl}piperazine], the inhibition at 4 µM is above 90%.
The same measure, in the same setting: the same measure for `O=C(Cc1ccccc1OC(F)(F)F)N1CCN(CC(=O)N2CCN(C3CCC3)CC2)CC1` [Compound 621, 1-cyclobutyl-4-[(4-{[2-(trifluoromethoxy)phenyl]acetyl}piperazin-1-yl)acetyl]piperazine]: above 90%; for `O=C(CN1CCN(C(=O)c2ccc(Cl)cc2Cl)CC1)N1CCN(C2CCC2)CC1` [Compound 674, 1-cyclobutyl-4-{[4-(2,4-dichlorobenzoyl)piperazin-1-yl]acetyl}piperazine]: above 90%; for `O=C(CN1CCN(C(=O)c2cnccc2C(F)(F)F)CC1)N1CCN(C2CCC2)CC1` [Compound 632, 1-cyclobutyl-4-[(4-{[4-(trifluoromethyl)pyridin-3-yl]carbonyl}piperazin-1-yl)acetyl]piperazine]: above 90%.
With `O=C(CN1CCN(C(=O)c2c(F)cccc2C(F)(F)F)CC1)N1CCN(C2CCC2)CC1` [Compound 582], the inhibition at 4 µM was above 90%.
For `COc1ccc(C(=O)N2CCN(CC(=O)N3CCN(C4CCC4)CC3)CC2)c(OC)c1` [Compound 677, 1-cyclobutyl-4-{[4-(2,4-dimethoxybenzoyl)piperazin-1-yl]acetyl}piperazine], the inhibition at 4 µM is above 90%.
On to `O=C(CN1CCN(C(=O)c2cc(F)ccc2F)CC1)N1CCN(C2CCC2)CC1` [Compound 684, 1-cyclobutyl-4-{[4-(2,5-difluorobenzoyl)piperazin-1-yl]acetyl}piperazine], for which the inhibition at 4 µM was above 90%.
On to `O=C(/C=C/c1cccc(C(F)(F)F)c1)N1CCN(CC(=O)N2CCN(C3CCC3)CC2)CC1` [Compound 615, 1-cyclobutyl-4-[(4-{(2E)-3-[3-(trifluoromethyl)phenyl]prop-2-enoyl}piperazin-1-yl)acetyl]piperazine], for which the inhibition at 4 µM was above 90%.
As for `Cc1cc(C)cc(C(=O)N2CCN(CC(=O)N3CCN(C4CCC4)CC3)CC2)c1` [Compound 742, 1-cyclobutyl-4-{[4-(3,5-dimethylbenzoyl)piperazin-1-yl]acetyl}piperazine], the inhibition at 4 µM was above 90%.
On the same count and under the same terms, the same measure for `O=C(CN1CCN(C(=O)c2cccnc2Sc2ccccc2)CC1)N1CCN(C2CCC2)CC1` [Compound 620, 1-cyclobutyl-4-[(4-{[2-(phenylthio)pyridin-3-yl]carbonyl}piperazin-1-yl)acetyl]piperazine]: above 90%.
`COc1cccc(OC)c1C(=O)N1CCN(CC(=O)N2CCN(C3CCC3)CC2)CC1` [Compound 694, 1-cyclobutyl-4-{[4-(2,6-dimethoxybenzoyl)piperazin-1-yl]acetyl}piperazine]: the inhibition at 4 µM was above 90%.
The same measure, in the same setting: the same measure for `COc1ccc(C(=O)N2CCN(CC(=O)N3CCN(C4CCC4)CC3)CC2)cc1OC` [Compound 731, 1-cyclobutyl-4-{[4-(3,4-dimethoxybenzoyl)piperazin-1-yl]acetyl}piperazine]: above 90%; for `CCC(C(=O)N1CCN(CC(=O)N2CCN(C3CCC3)CC2)CC1)c1ccccc1` (stereo not shown) [Compound 721, 1-cyclobutyl-4-{[4-(2-phenylbutanoyl)piperazin-1-yl]acetyl}piperazine]: above 90%; for `O=C(Cc1cccc(OC(F)(F)F)c1)N1CCN(CC(=O)N2CCN(C3CCC3)CC2)CC1` [Compound 626, 1-cyclobutyl-4-[(4-{[3-(trifluoromethoxy)phenyl]acetyl}piperazin-1-yl)acetyl]piperazine]: above 90%.
`O=C(CN1CCN(C(=O)c2cc(Cl)cc(Cl)c2)CC1)N1CCN(C2CCC2)CC1` [Compound 738, 1-cyclobutyl-4-{[4-(3,5-dichlorobenzoyl)piperazin-1-yl]acetyl}piperazine]: the inhibition at 4 µM was above 90%.
As to `COc1cc(C(=O)N2CCN(CC(=O)N3CCN(C4CCC4)CC3)CC2)cc(OC)c1OC` [Compound 724, 1-cyclobutyl-4-{[4-(3,4,5-trimethoxybenzoyl)piperazin-1-yl]acetyl}piperazine], the inhibition at 4 µM was above 90%.
On the same count and under the same terms, the same measure for `O=C(CN1CCN(C(=O)c2ccc(Oc3cc(Cl)cc(Cl)c3)o2)CC1)N1CCN(C2CCC2)CC1` [Compound 608, 1-cyclobutyl-4-({4-[5-(3,5-dichlorophenoxy)-2-furoyl]piperazin-1-yl}acetyl)piperazine]: above 90%.

The assay is the same for the next values; noted with them: 1 h; assay described in Example 8; symbol + in column headed Ki of Table II; read-out: percent inhibition of agonist-induced GTP-gammaS binding to H3.
Consider `O=C(CN1CCN(C(=O)c2sc3ccccc3c2Cl)CC1)N1CCN(C2CCC2)CC1` [Compound 397, 1-[(3-chloro-1-benzothien-2-yl)carbonyl]-4-[2-(4-cyclobutylpiperazin-1-yl)-2-oxoethyl]piperazine], for which the inhibition at 4 µM is above 90%.
As for `O=C(CN1CCN(C(=O)c2ccccc2Oc2ccc(Cl)cc2)CC1)N1CCN(C2CCC2)CC1` [Compound 419, 1-[2-(4-chlorophenoxy)benzoyl]-4-[2-(4-cyclobutylpiperazin-1-yl)-2-oxoethyl]piperazine], the inhibition at 4 µM is above 90%.
The same measure, in the same setting: under `O=C(Cc1ccccc1Cl)N1CCN(CC(=O)N2CCN(C3CCC3)CC2)CC1` [Compound 384, 1-[(2-chlorophenyl)acetyl]-4-[2-(4-cyclobutylpiperazin-1-yl)-2-oxoethyl]piperazine] stands above 90%; under `O=C(CN1CCN(C(=O)c2ccc(-c3ccccc3)cc2)CC1)N1CCN(C2CCC2)CC1` [Compound 376, 1-(biphenyl-4-ylcarbonyl)-4-[2-(4-cyclobutylpiperazin-1-yl)-2-oxoethyl]piperazine], above 90%.
